The record followed here is PubChem BioAssay (NCI).

What all share (assay): NCI-60 cell line screen, 48 h
Experiment [1] has as its system LOX IMVI melanoma.
Experiment [2] concerns MDA-MB-231 breast.
For experiment [3], the system named is SF-539 CNS.
Experiment [4] has as its system HOP-62 NSCLC.
The test system of experiment [5] is OVCAR-4 ovarian.
The test system of experiment [6] is A549 NSCLC.
The subject of experiment [7] is SR leukemia.
In experiment [8] the test system is SF-268 CNS.
Experiment [9] relates to HOP-92 NSCLC.
Experiment [10] has as its system HL-60(TB) leukemia.
Experiment [11] has as its system ACHN renal.

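All cell lines were grown in 96-well plates and treated with compound for 48 hours. Definition used: TGI = concentration required for complete inhibition of growth.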

Turning to `CC(=O)n1cc(C2CC23N=C(c2ccccc2)OC3=O)c2ccccc21` (stereo not drawn), the TGI in [1] was 35.8 µM; in experiment [2], 46.4 µM; in experiment [3] it was 41.2 µM; in [4], above 100 µM; in [5] it was 42.4 µM; in experiment [6] it was 59.9 µM. Further, the TGI turned out to be 40.3 µM in experiment [7]; 46.3 µM in experiment [8]; 52.5 µM in [9]; 6.12 µM in experiment [10]; 38.3 µM in [11].
Turning to `C[C@]12CC[C@H]3[C@@H](CCC4=CC(=O)C=C[C@@]43OC(=O)C(F)(F)F)[C@@H]1CCC2=O`, the TGI in experiment [1], in experiment [2], in experiment [3], in experiment [4], in [5] and in [6] was above 100 µM throughout. For the same compound, the TGI in experiment [7], in experiment [8], in experiment [9], in experiment [10] and in experiment [11] was above 100 µM each time.
Consider `Cc1cc(S(=O)(=O)Nc2nc3ncccc3[nH]2)c(S)cc1Cl`, for which the TGI in experiment [1], in experiment [2], in experiment [3], in experiment [4], in experiment [5] and in experiment [6] was above 100 µM each time. The TGI in experiment [7], in experiment [8], in experiment [9], in experiment [10] and in [11] was above 100 µM in each case.
Consider `COc1ccc(-n2c(=O)c3[nH]c(=S)[nH]c3n(-c3ccc(OC)cc3)c2=S)cc1`, for which the TGI in experiment [1], in [2], in [3], in experiment [4], in experiment [5] and in experiment [6] was above 100 µM each time. Moreover, the TGI in [7], in experiment [8], in experiment [9], in [10] and in experiment [11] was above 100 µM throughout.
For the compound `Cc1ccc(S(=O)(=O)N2C[C@@H]3CC[C@]4(CO[Si](C)(C)C(C)(C)C)N[C@@H](c5ccccc5)[C@H]2[C@H]34)cc1`, the TGI in experiment [1], in [2], in experiment [3], in experiment [4], in experiment [5] and in experiment [6] was above 100 µM throughout. The TGI is above 100 µM in experiment [7]; above 100 µM in [8]; 28.7 µM in experiment [9]; above 100 µM in experiment [10]; above 100 µM in experiment [11].
Regarding `COC(=O)[C@@H]1CS(=O)(=O)C(C(C)C)N1C(C)=O` (stereo partly drawn), the TGI in experiment [1], in experiment [2], in experiment [3], in experiment [4], in experiment [5] and in experiment [6] was above 100 µM in each case. Moreover, the TGI in [7] is above 100 µM; in experiment [8], above 100 µM; in [9], above 100 µM; in experiment [10], 32.1 µM; in experiment [11] it was above 100 µM.
With `O=C(O)CSc1ccccc1C(=O)O`, the TGI in [1], in experiment [2], in experiment [3], in experiment [4], in [5] and in [6] was above 100 µM each time. Moreover, the TGI in experiment [7], in experiment [8], in [9], in experiment [10] and in experiment [11] was above 100 µM in each case.
Turning to `c1nc(NCCc2cnc[nH]2)c2[nH]cnc2n1`, the TGI in [1], in experiment [2], in experiment [3], in experiment [4], in [5] and in experiment [6] was above 100 µM each time. In addition, the TGI in experiment [7], in experiment [8], in experiment [9], in [10] and in experiment [11] was above 100 µM in each case.
As to `O=c1[nH]nc(-c2ccccc2)n1/N=C/c1ccc([N+](=O)[O-])o1`, the TGI in experiment [1] is above 100 µM; in experiment [2], 19.5 µM; in experiment [3], 15.7 µM; in [4] it was 19.7 µM; in [5], 16.7 µM; in experiment [6], 21.9 µM. For the same compound, the TGI in experiment [7] was above 100 µM; in experiment [8], above 28 µM; in [9], above 24.1 µM; in [10], above 44.4 µM; in experiment [11], 14.4 µM.
`NNC(=O)Nc1nc2ccc(NN)cc2[nH]1`: the TGI in experiment [1] is above 100 µM; in experiment [2] it was above 100 µM; in [3], 28.5 µM; in [4], above 100 µM; in experiment [5], above 100 µM; in experiment [6] it was above 100 µM. In addition, the TGI in [7] is 43.2 µM; in [8], above 100 µM; in experiment [9] it was 57.3 µM; in experiment [10] it was 32.4 µM; in experiment [11], above 100 µM.
For the compound `CCCCc1ccc(Nc2ncc3ncn(COCCO)c3n2)cc1`, the TGI was 39.7 µM in experiment [1]; 57.4 µM in experiment [2]; above 100 µM in experiment [3]; above 100 µM in [4]; above 100 µM in [5]; above 100 µM in experiment [6]. In addition, the TGI was 52.5 µM in experiment [7]; above 100 µM in experiment [8]; 92.8 µM in experiment [9]; 50 µM in experiment [10]; above 100 µM in [11].
`COc1ccc(C#Cn2nnc3ccccc32)cc1`: the TGI in experiment [1], in [2], in experiment [3], in experiment [4], in experiment [5] and in experiment [6] was above 100 µM throughout. The TGI in experiment [7] is above 100 µM; in experiment [8], above 100 µM; in experiment [9] it was above 100 µM; in experiment [10], 60.6 µM; in experiment [11] it was above 100 µM.
As to `CCOC(=O)/C(C(N)=O)=C(\O)C(=O)/C(Br)=C(\O)c1ccccc1`, the TGI in experiment [1] is 36.3 µM; in [2], 34.2 µM; in experiment [3] it was 36.5 µM; in experiment [4] it was 41.5 µM; in experiment [5], 56.5 µM; in experiment [6] it was 43.5 µM. Also, the TGI is 12.1 µM in experiment [7]; 39.5 µM in [8]; 53.7 µM in experiment [9]; 0.248 µM in experiment [10]; 33.3 µM in experiment [11].
For the compound `CCOC(=O)C1CC(C(=O)c2ccccc2)N2c3ccccc3-c3ccccc3C12` (stereo not drawn), the TGI in [1], in experiment [2], in experiment [3], in [4], in experiment [5] and in experiment [6] was above 100 µM in each case. Also, the TGI was 84.1 µM in experiment [7]; above 100 µM in experiment [8]; above 100 µM in experiment [9]; 29.7 µM in [10]; above 100 µM in [11].
As for `NC(Cc1ccc(OCc2ccccc2)cc1)C(=O)NC(Cc1ccccc1)C(=O)Oc1c(Cl)c(Cl)c(Cl)c(Cl)c1Cl` (stereo not drawn), the TGI worked out at 27.1 µM in experiment [1]; 25.7 µM in [2]; 30.6 µM in experiment [3]; 30.5 µM in experiment [4]; 35.5 µM in experiment [5]; 37.5 µM in experiment [6]. Also, the TGI in [7] is above 100 µM; in experiment [8], 38.9 µM; in experiment [9], 25.8 µM; in experiment [10], above 100 µM; in experiment [11] it was 30.5 µM.
As to `Fc1cccc(F)c1C1SCc2nc3cc(Cl)c(Cl)cc3n21` (stereo not drawn), the TGI in experiment [1], in experiment [2], in [3], in experiment [4], in experiment [5] and in experiment [6] was above 100 µM throughout. Also, the TGI in experiment [7], in experiment [8], in experiment [9], in experiment [10] and in [11] was above 100 µM in each case.
For the compound `O=C(Nc1sccc1S(=O)(=O)c1ccc(Cl)cc1)c1ccc(F)cc1F`, the TGI is above 100 µM in experiment [1]; 54 µM in [2]; 30.5 µM in experiment [3]; 80.1 µM in experiment [4]; 53.9 µM in experiment [5]; above 100 µM in experiment [6]. Further, the TGI in experiment [7] is 40.9 µM; in experiment [8], 42.7 µM; in experiment [9], 42.5 µM; in [10], above 100 µM; in experiment [11], above 100 µM.
In the case of `CCn1c(=O)c2nc(SC)sc2n(-c2ccc(C)cc2)c1=O`, the TGI in experiment [1], in [2], in experiment [3], in experiment [4], in [5] and in experiment [6] was above 100 µM in each case. For the same compound, the TGI in experiment [7], in experiment [8], in experiment [9], in [10] and in experiment [11] was above 100 µM throughout.
